The record followed here is US6599715B1, “Real time viability detection of bacterial spores” (priority 1999, dated 2003).

The assay relates to Bacillus globigii spores. Format: cell-based. Particulars: relative germination; phase change monitored at 450 nm over 10 minutes; 3.6×10^8 spores per ml in 20 mM potassium phosphate buffer (pH 7.4). The protocol:
Bacillus cultures were grown at 30° C. with moderate aeration for 7 days. Spores were harvested by centrifugation at 10,900×g for 30 minutes at 4° C. and resuspended in 200 milliliters (ml) of sterile distilled water and washed 7 to 10 times, heated to 65° C. for 15 minutes to kill any vegetative cells, and stored at 4° C. Spore populations were determined from the average of 3 serial dilution plates.
B. globigii spores (500 microliters (μl)) were diluted to a concentration of 3.6×10^8 spores per ml in 20 millimolar (mM) potassium phosphate buffer (pH 7.4), and mixed with 500 μl of a 0.12 M solution of one or more of L-alanine, L-asparagine and D-glucose, together with DPA and other chemicals to test the effectiveness of various combinations as germinating agents. The phase change of the spores in the germinants was monitored at 450 nm over a period of 10 minutes.
For `O=C(O)c1cccc(C(=O)O)n1` [20 mM DPA, pyridine-2,6-dicarboxylic acid], the Percent germination amounted to 7.3%. In the case of `NC(=O)C[C@H](N)C(=O)O` [20 mM L-asparagine, L-asparagine], the Percent germination is reported as 5.2%. With `C[C@H](N)C(=O)O` [20 mM L-alanine, L-alanine] the figure was 50.1%.

Turning to `O=C[C@H](O)[C@@H](O)[C@H](O)[C@H](O)CO` [20 mM D-glucose, D-glucose], the Percent germination is 7.0%.
